The compounds below were run on HCV 1b genotype (assay: Cell-based luciferase reporter HCV (Ib) RNA replication assay (Huh-ET replicon cells)). Settings: Hepatitis C virus, 96 h; HCV 1b genotype replicon, 4 days incubation, luciferase readout.
Excerpt: Cell-Based Luciferase Reporter HCV (Ib) RNA Replication Assay Cell Culture
Replicon cell lines Huh-5.2 are derived from the Huh-7 hepatocarcinoma cell line are maintained in culture as generally described in Krieger, N; Lohmann, V; Bartenschlager, R. Enhancement of hepatitis C virus RNA replication by cell culture-adaptive mutations. J. Virol. 2001, 75, 4614-4624. The Huh-5.2 cells contain the highly cell culture-adapted replicon I389 Luc-ubi-neo/NS3-375.1 construct that carries, in addition to the neomycin gene, an integrated copy to the firefly luciferase gene (Krieger, N; Lohmann, V; Bartenschlager, R. Enhancement of hepatitis C virus RNA replication by cell culture-adaptive mutations. J. Virol. 2001, 75, 4614-4624). This cell line allows measurement of HCV RNA replication and translation by measuring luciferase activity. It has been previously shown that the luciferase activity tightly follows the replicon RNA level in these cells (Krieger, N; Lohmann, V; Bartenschlager, R. Enhancement of hepatitis C virus RNA replication by cell culture-adaptive mutations. J. Virol. 2001, 75, 4614-4624). The Huh-ET cell line has the same features as those mentioned for Huh-5.2 cell line, except that ET cells are more robust and contain an adaptative mutation in the HCV NS4B gene instead of NS5A. Both cell lines are maintained in cultures at a sub-confluent level (<85%) as the level of replicon RNA is highest in actively proliferating cells. The culture media used for cell passaging consist of DMEM (Gibco BRL Laboratories, Mississauga, ON, Canada) supplemented with 10% foetal bovine serum with 1% penicilin/streptomycin, 1% glutamine, 1% sodium pyruvate, 1% non-essential amino acids, and 180 μg/ml of G418 final concentration. Cells are incubated at 37° C., in an atmosphere of 5% CO2 and passaged twice a week to maintain sub-confluence.
Approximately 3000 viable Huh-ET cells (100 μl) are plated per well in a white opaque 96-well microtiter plate. The cell culture media used for the assay is the same as described above except that it contains no G418 and no phenol red. After an incubation period of 3-4 hours at 37° C. in a 5% CO2 incubator, compounds (100 μl) are added at various concentrations. Cells are then further incubated for 4 days at 37° C. in a 5% CO2 incubator. Thereafter, the culture media is removed and cells are lysed by the addition of 95 μL of the luciferase buffer (luciferin substrate in buffered detergent). Cell lysates are incubated at room temperature and protected from direct light for at least 10 minutes. Plates are read for luciferase counts using a luminometer (Wallac MicroBeta Trilux, Perkin Elmer™, MA, USA).
The 50% inhibitory concentrations (IC50s) for inhibitory effect are determined from dose response curves using eleven concentrations per compound in duplicate. Curves are fitted to data points using nonlinear regression analysis, and IC50s are interpolated from the resulting curve using GraphPad Prism software, version 2.0 (GraphPad Software Inc., San Diego, Calif., USA).
EC50 ranges are presented in micromolar as follows: μM+++<=0.005<++<=5.0<+.

| SMILES | IC50 [nM] |
| --- | --- |
| COC(=O)N[C@H](C(=O)N1C[C@@H](C)C[C@H]1c1nc(C)c(C#Cc2cc(F)c(C#Cc3[nH]c([C@@H]4C[C@H](C)CN4C(=O)[C@@H](NC(=O)OC)C(C)C)nc3C)cc2F)[nH]1)C(C)C [Compound 29] | ≤ 5 |
| COC(=O)N[C@H](C(=O)N1C[C@@H](C)C[C@H]1c1ncc(C#Cc2ccc(C#Cc3cnc([C@@H]4C[C@H](C)CN4)[nH]3)cc2)[nH]1)C(C)C [Compound 39] | 5 to 5000 |
| COC(=O)N[C@H](C(=O)N1C[C@@H](OC)C[C@H]1c1ncc(C#Cc2ccc(C#Cc3cnc([C@@H]4C[C@H](OC)CN4C(=O)[C@@H](NC(=O)OC)C(C)C)[nH]3)cc2)[nH]1)C(C)C [Compound 68] | ≤ 5 |
| COC(=O)N[C@H](C(=O)N1C[C@@H](C)C[C@H]1c1nc(C)c(C#Cc2ccc(C#Cc3[nH]c([C@@H]4C[C@H](C)CN4C(=O)[C@@H](NC(=O)OC)C(C)C)nc3C)c(F)c2)[nH]1)C(C)C [Compound 31] | ≤ 5 |
| COC(=O)N[C@H](C(=O)N1CCC[C@H]1c1nc(C#CC#Cc2c[nH]c([C@@H]3CCCN3C(=O)[C@@H](NC(=O)OC)C(C)C)n2)c[nH]1)C(C)C [Compound 15] | 5 to 5000 |
| COC(=O)N[C@H](C(=O)N1C[C@@H](C)C[C@H]1c1nc(-c2cc3sc(-c4c[nH]c([C@@H]5C[C@H](C)CN5C(=O)[C@@H](NC(=O)OC)C(C)C)n4)cc3s2)c[nH]1)C(C)C [Compound 26] | ≤ 5 |
| COC(=O)N[C@H](C(=O)N1C[C@@H](C)C[C@H]1c1ncc(C#Cc2ccc(C#Cc3cnc([C@@H]4C[C@H](C)CN4C(=O)[C@H](C(C)C)N(C)C(=O)OC)[nH]3)cc2)[nH]1)C(C)C [Compound 12] | ≤ 5 |
| COC(=O)N[C@H](C(=O)N1[C@@H](C)CC[C@H]1c1ncc(C#Cc2ccc(C#Cc3cnc([C@@H]4CC[C@H](C)N4C(=O)[C@@H](NC(=O)OC)C(C)C)[nH]3)cc2)[nH]1)C(C)C [Example 42] | ≤ 5 |
| COC(=O)N[C@H](C(=O)N1C[C@@H](C)C[C@H]1c1nc(C#Cc2ccc(C#Cc3c[nH]c([C@@H]4C[C@H](C)CN4C(=O)[C@@H](NC(=O)OC)C(C)C)n3)c(C#N)c2)c[nH]1)C(C)C [Compound 62] | ≤ 5 |
| COC(=O)N[C@H](C(=O)N1CCC[C@H]1c1ncc(C#Cc2ccc(C#Cc3cnc([C@@H]4CCCN4C(=O)[C@@H](NC(=O)OC)C(C)C)[nH]3)c3c2OCO3)[nH]1)C(C)C [Compound 2] | ≤ 5 |
| COC(=O)N[C@H](C(=O)N1C[C@@H](C)C[C@H]1c1ncc(C#Cc2ccc(C#Cc3cnc([C@@H]4C[C@H](C)CN4C(=O)OC(C)(C)C)[nH]3)cc2)[nH]1)C(C)C [Compound 54] | ≤ 5 |
| [2H]c1c([2H])c(C#Cc2cnc([C@@H]3C[C@H](C)CN3C(=O)[C@@H](NC(=O)OC)C(C)C)[nH]2)c([2H])c([2H])c1C#Cc1cnc([C@@H]2C[C@H](C)CN2C(=O)[C@@H](NC(=O)OC)C(C)C)[nH]1 [Compound 5] | ≤ 5 |
| COC(=O)N[C@H](C(=O)N1C[C@@H](C)C[C@H]1c1nc(C#Cc2ccc(C#Cc3c[nH]c([C@@H]4C[C@H](C)CN4C(=O)[C@@H](NC(=O)OC)[C@@H](C)OC)n3)cc2)c[nH]1)[C@@H](C)OC [Compound 7] | ≤ 5 |
| COC(=O)N[C@H](C(=O)N1C[C@@H](C)C[C@H]1c1ncc(C#Cc2ccc(C#Cc3cnc([C@@H]4C[C@H](C)CN4C(=O)[C@@H](NC(=O)OC)C(C)C)[nH]3)c3nsnc23)[nH]1)C(C)C [Compound 40] | ≤ 5 |
| COC(=O)N[C@H](C(=O)N1C[C@@H](C)C[C@H]1c1nc(C#Cc2ccc3cc(C#Cc4c[nH]c([C@@H]5C[C@H](C)CN5C(=O)[C@@H](NC(=O)OC)C(C)C)n4)sc3c2)c[nH]1)C(C)C [Compound 67] | ≤ 5 |
| COC(=O)N[C@H](C(=O)N1C[C@@H](C)C[C@H]1c1ncc(C#Cc2cc3sc(C#Cc4cnc([C@@H]5C[C@H](C)CN5C(=O)[C@@H](NC(=O)OC)C(C)C)[nH]4)cc3s2)[nH]1)C(C)C [Compound 10] | ≤ 5 |
| COC(=O)N[C@H](C(=O)N1C[C@@H](C)C[C@H]1c1ncc(C#Cc2ccc(C#Cc3cnc([C@@H]4C[C@H](C)CN4C(=O)[C@@H](NC(=O)OC)C(C)C)[nH]3)c3c2OC(F)(F)O3)[nH]1)C(C)C [Compound 45] | ≤ 5 |
